Measurements published in patent publication US12076432B2, “Method of repairing oxidatively treated hair” (Conopco, Inc., priority 2018, dated 2024).

Assays:
[1] = Denaturation temperature (Td) by DSC of bleached hair after soak in 1% aqueous N-acetyl amino acid solution; parameters: Denaturation Temperature Td (n = 3): unit not given here; settings: hair soaked 30 minutes in 1% aqueous solution; for Denaturation Temperature Td (n = 3): DSC, no rinse; for Difference from control (Td): vs Control 1 or Control 2 (twice bleached hair), in °C (unit assumed)
Method: Hair that has been damaged has internal protein with a reduced denaturation temperature compared to that of virgin hair. The reduction in denaturation temperature is attributed to a degradation of the internal hair cortex proteins.
Hair damage can be measured in different ways. This invention focusses on the structural integrity of hair cortex proteins, as can be determined by Differential Scanning Calorimetry.
(§1) Hair was bleached for 30 min with Platine Precision White Compact Lightening Powder (L'Oreal Professionnel Paris, Paris, France) mixed with 9% cream peroxide, 30 ‘vol’ (Excel GS Ltd, UK) (60 g of powder mixed with 120 g cream peroxide). Hair was then rinsed with water for 2 minutes. This procedure was repeated on the same hair to produce twice bleached hair.
(§2) In the following examples, compositions A-C are comparative examples and 1-6 are in accordance with the invention. The compositions are 1% aqueous solutions of various N-Acetyl amino acids, prepared by adding the N-acetyl amino acid to water with stirring.
In the following experiments, Control 1 and 2 were from two different batches of twice bleached hair. They were dialysed with water before being used.
(§3) Twice bleached dark brown European hair was soaked for 30 minutes in 1% aqueous solutions of various N-Acetyl amino acids. The hair was then removed from the solution. Clippings from a few fibres were then taken and the denaturation temperature (Td) was measured using DSC.

[2] = Denaturation temperature (Td) by DSC of soaked and rinsed bleached hair after wash with base wash; settings: after soak; for Difference from control (Td): rinse and wash with 14% SLES, vs Control (DB) or Control 2; for Td (n = 3): rinse and wash with base wash (14% SLES solution), DSC
Method: as §1, §2, §3
(§4) The switches from experiment 1 were rinsed in running water for 30 seconds.
The rinsed switches of experiment 2 were washed with base wash (14% SLES solution) and DSC performed.
Hair was washed with a cleansing shampoo using the following method:—
The hair fibres were held under running water for 30 seconds, shampoo applied at a dose of 0.1 ml of shampoo per 1 g of hair and rubbed into the hair for 30 seconds. Excess lather was removed by holding under running water for 30 seconds and the shampoo stage repeated. The hair was rinsed under running water for 1 minute.

[3] = Denaturation temperature (Td) by DSC of soaked bleached hair after subsequent rinse step; settings: for Difference from control (Td): after soak and 30 seconds rinse, vs Control 1 or Control 2; for Td (n = 3): after soak, rinsed in running water for 30 seconds, DSC
Method: as §1, §2, §3
The effect of a subsequent rinse step was determined.
as §4

SMILES | Denaturation Temperature Td (n = 3) [1] | Difference from control (Td) [1] | Difference from control (Td) [2] [°C] | Td (n = 3) [2] | Difference from control (Td) [3] [°C] | Td (n = 3) [3]
CC(=O)N[C@@H](CS)C(=O)O [N-Acetyl Cysteine, reference compound] | 149.27 | 0.67 | – | – | – | –
CC(=O)N[C@@H](CCCNC(=N)N)C(=O)O [N-Acetyl Arginine, reference compound] | 148.57 | −0.03 | – | – | – | –
CC(=O)N[C@@H](C)C(=O)O [N-Acetyl Alanine] | 156.00 | 7.4 | 2.76 | 151.11 | 4.2 | 152.99
CSCC[C@H](NC(C)=O)C(=O)O [N-Acetyl Methionine] | 153.36 | 7.79 | 5.42 | 151.14 | 3.85 | 149.97
CC(=O)N[C@@H](Cc1c[nH]cn1)C(=O)O [N-Acetyl Histidine] | 148.08 | 2.51 | 1.93 | 147.65 | 1.64 | 147.76
CC(=O)N1CCC[C@H]1C(=O)O [N-Acetyl Proline] | 154.46 | 5.86 | 1.08 | 149.43 | 2.16 | 150.95
CC(=O)N[C@@H](CCC(=O)O)C(=O)O [N-Acetyl Glutamic acid] | 154.69 | 6.09 | 2.9 | 151.26 | 3.89 | 152.67
CC(=O)N[C@@H](CCC(N)=O)C(=O)O [N-Acetyl Glutamine] | 155.15 | 6.55 | 2.5 | 150.85 | 1.97 | 150.75
CC(=O)N[C@@H](CO)C(=O)O [N-Acetyl Serine] | 156.25 | 7.65 | – | – | 3.02 | 151.80
